Assay results taken from patent US20260263644A1, “USE OF POSITRON MYOCARDIAL FATTY ACID METABOLISM IMAGING AGENT AND POSITRON 18F-FDG MYOCARDIAL GLUCOSE IMAGING AGENT IN PET COMBINED IMAGING” (priority 2023, published 2026).

Key:
[1] = test system: anterior wall myocardium with chronic myocardial infarction; assay: Combined 18F-FDG and XTR003 PET myocardial metabolic imaging under fasting in the chronic myocardial infarction pig model; format: in vivo, Bama miniature pig; settings: for uptake in the myocardial infarction area (PET myocardial metabolic image): 18F-FDG 1mCi first
Method: Each experiment used a Bama miniature pig approximately one year old, and the experiment was repeated three times. Taking the second of the three experiments as an example: the piglet weighed approximately 10 kg. A constrictive ring was placed at the site of the left anterior descending coronary artery to gradually induce chronic myocardial infarction in the anterior wall myocardium. Four weeks later, for comparative purposes, a ^99mTc-Sestamibi SPECT myocardial perfusion imaging was performed in the morning (this imaging is the gold standard for assessing viable and scarred myocardium in the infarcted area and was used in this study as a reference for comparing PET imaging results). In the afternoon, a one-day protocol for combined ^18F-FDG and XTR003 PET imaging was performed (with at least 2-hour interval from the SPECT conducted in the morning, during which fasting was maintained). ^18F-FDG PET imaging was performed first, followed by XTR003 PET imaging. The injection doses of the above two agents were 1mCi and 2.5mCi, respectively. XTR003 was injected 1 hour after the ^18F-FDG injection, followed immediately by PET imaging. Each experiment used a Bama miniature pig about one year old, and the experiment was repeated three times. Taking the second of the three experiments as an example: the piglet weighed approximately 11 kg. A constriction ring was placed at the site of the left anterior descending coronary artery to gradually induce chronic myocardial infarction in the anterior wall myocardium. Three weeks later, for comparative purposes, a 99mTc-Sestamibi SPECT myocardial perfusion imaging was performed in the morning. In the afternoon, a one-day protocol combining ^18F-FDG and XTR003 PET imaging was performed, ^18F-FDG PET imaging was performed first, followed by XTR003 PET imaging. The injection doses of the above two agents were 1mCi and 3.1mCi, respectively. Among them, XTR003 was injected 1 hour after the ^18F-FDG injection, followed immediately by PET imaging. A disease animal model was constructed as described in Example 1. After myocardial perfusion imaging, “a one-day protocol combining ^18F-FDG PET and XTR003 PET imaging” was performed, wherein XTR003 was injected one hour after the injection of ^18F-FDG, followed immediately by PET imaging. The only difference between the Comparative Example and Example 1 is that the injection doses of the above two agents were 1 mCi and 0.25 mCi, respectively. The results of the combined ^18F-FDG and XTR003 PET imaging (also used the second experiment out of three replicates as an example) are shown in FIGS. 3a-3b. In the Figs.: An animal model of the disease was constructed as described in Example 1, differing only in the order of imaging; specifically, XTR003 PET imaging was performed first, followed by ^18F-FDG PET imaging. The injection doses of the two agents were 1 mCi and 3 mCi, respectively. In the Figs.: An animal model of the disease was constructed as described in Example 3. After myocardial perfusion, “a one-day protocol combining XTR003 PET and ^18F-FDG PET imaging” was performed, wherein ^18F-FDG was injected one hour after the injection of XTR003, followed immediately by PET imaging. The only difference between the Comparative Example and Example 3 was that the injection doses of the above two agents were 1 mCi and 0.25 mCi, respectively. In the Figs.: The disease animal model was constructed according to the description of Example 1. The only difference from Example 1 was that after the myocardial perfusion imaging, a “two-day protocol combining ^18F-FDG PET and XTR003 PET imaging” was performed instead of the “one-day protocol”. In the Figs.: An animal model of the disease was constructed as described in Example 1. After myocardial perfusion imaging, a “a one-day protocol combining ^18F-FDG PET and XTR003 PET imaging” was performed, wherein XTR003 was injected one hour after the injection of ^18F-FDG, followed immediately by PET imaging. […]

normal myocardium = assay: Separate PET imaging with a single imaging agent, without combination; format: in vivo, Bama miniature pig; settings: Comparative Example 3; fasting; each agent administered separately, not in combination; FIGS. 7a, 7b
Method: Each experiment was performed using a Bama miniature pig of about one year old, and the experiment was repeated three times; taking the second experiment of the three experiments as an example: the piglet weighed about 10 kg, and the two imaging agents were administered separately for imaging rather than in combination. The results of separate PET imaging with ^18F-FDG and XTR003 are shown in FIGS. 7a and 7b, respectively.

SMILES: CCCCCCCCC([18F])CCCCC1CC1CC(=O)O (stereo not shown) [XTR003]
- image quality of myocardial metabolic images ([1]; Comparative Example 1, one-day protocol, 18F-FDG 1 mCi first, then XTR003 0.25 mCi, FIGS. 3a-3b): excessive image noise
- image quality of myocardial metabolic images ([1]; Comparative Example 2, one-day protocol, XTR003 1 mCi first, then 18F-FDG 0.25 mCi, FIGS. 5a-5b): normal image quality
- uptake in the myocardial infarction area (PET myocardial metabolic image) ([1]; Example 1, one-day protocol, XTR003 2.5mCi injected 1 hour later, FIGS. 1b-1c): moderate uptake
- uptake in the myocardial infarction area (PET myocardial metabolic image) ([1]; Example 2, one-day protocol, XTR003 3.1mCi injected 1 hour later, FIGS. 2b-2c): no XTR003 uptake
- image quality of myocardial metabolic images ([1]; Example 3, one-day protocol, XTR003 1 mCi first, then 18F-FDG 3 mCi, FIGS. 4a-4b): normal image quality
- image quality of myocardial metabolic images ([1]; Example 4, two-day protocol, FIGS. 6a-6b): normal image quality
- visibility of myocardial metabolic images (normal myocardium): can show normal image
